In this test the target is T1, CXCR3 (Homo sapiens, UniProt P49682).
T1 sequence (P49682 1-368): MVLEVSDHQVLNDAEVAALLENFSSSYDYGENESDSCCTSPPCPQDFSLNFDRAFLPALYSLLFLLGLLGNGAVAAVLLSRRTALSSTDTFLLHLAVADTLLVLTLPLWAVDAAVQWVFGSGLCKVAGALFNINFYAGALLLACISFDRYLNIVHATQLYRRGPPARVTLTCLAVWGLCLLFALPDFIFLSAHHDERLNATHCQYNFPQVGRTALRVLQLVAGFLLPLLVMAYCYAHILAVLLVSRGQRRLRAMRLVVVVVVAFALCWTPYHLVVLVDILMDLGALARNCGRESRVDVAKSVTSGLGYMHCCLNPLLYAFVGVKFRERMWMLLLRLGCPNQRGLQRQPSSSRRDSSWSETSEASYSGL
In words: human activated T cell chemotaxis induced by CXCL9, CXCL10, CXCL11. The format is cell-based. More on the design: endogenous in cells.

Procedure: The preparation of human activated T cells was performed as described previously [39]. Human peripheral blood lymphocytes were prepared by Ficoll-Hypaque centrifugation, depleted of monocytes, and stimulated for 2 days with 1 µg/ml PHA (Murex Diagnostics, Dartford, U.K.) and 100 U/ml IL-2 (Sigma, St. Louis, MO) in RPMI 1640 supplemented with 10% fetal bovine serum (FBS), 2 mM L-glutamine, 100 µg/ml streptomycin, 100 U/ml penecillin, 1% non-essential amino acids and 2 mM HEPES. Following stimulation, peripheral blood lymphocytes were cultured in above media containing 5% conditioned media (Sigma) for up to 15 days.
Human activated T cell chemotaxis assays were performed using 96-well ChemoTx® microplates (Neuro Probe, Inc., Gaithersburg, MD) with a 3 µm filter as per manufacturers' instructions. Activated T cells were washed with RPMI medium twice, and then resuspended in the medium containing 20% FBS. 1.25 × 10^5 cells/reaction were mixed with indicated concentrations of the compound and placed on the filter. The compound and chemokines were mixed and placed in the bottom well of the ChemoTx system. […] The number of migrated cells was measured using the Cell Titer Glo Luminescent Assay from Promega (Madison, WI) as per vendor's instructions. Chemotaxis is expressed as a chemotactic index, which is a ratio versus the one without chemokines (spontaneous migration). […]

Take `CC[C@H]1CN(c2nc(N)c(C(N)=O)nc2Cl)CCN1C1CCN(Cc2ccc(Cl)cc2)CC1` [SCH 546738]: the inhibition (as a rule, how much of the control response was suppressed) at 0.01 µM (10 nM compound, CXCL9, CXCL10, CXCL11, 20% FBS, read-out: inhibition of T cell chemotaxis induced by all three CXCR3 ligands) is approximately 90%. In addition, under “human activated T cells, read-out: IC90 of CXCR3-mediated chemotaxis”, the IC90 (in general, the concentration at which the effect reaches the 90% level) was approximately 10 nM.

Source of the values: PMC3298469, “A selective and potent CXCR3 antagonist SCH 546738 attenuates the development of autoimmune diseases and delays graft rejection” (BMC Immunology, 2012).
